The test system of this assay is Ramos cells. The experiment in a line: Cytotoxicity in Ramos cells (cell death). The assay is classed as cell-based. How it is done: The compounds listed in Table 7 were tested for cytotoxicity in Ramos cells. The assay was conducted as described in K. M. Johnson et al. Chemistry & Biology 2005, 12, 485-496.

As a reminder, the EC50 is the midpoint of the concentration-response curve. Higher therefore signals weaker potency. Compound `O=C(N=C(Nc1ccc2ccccc2c1)Nc1ccc2[nH]c(=O)oc2c1)c1ccc(Cl)cc1` [Compound I-26] yielded an EC50 of less than 10 µM. For the compound `CC(C)(C)c1ccccc1NC(=NC(=O)c1ccc(C(F)(F)F)c(F)c1)Nc1ccc2[nH]c(=O)oc2c1` [Compound I-106], the EC50 was less than 10 µM. Under `O=C(N=C(Nc1ccc2ccccc2c1)Nc1ccc2[nH]c(=O)oc2c1)c1ccc(Br)cc1` [Compound I-25] stands less than 10 µM. As for `N#Cc1ccc(C(=O)N=C(Nc2ccc3[nH]c(=O)oc3c2)Nc2ccccc2C(F)(F)F)cc1` [Compound I-104], the half-maximal effective concentration (EC50) is less than 10 µM. As for `O=C(N=C(Nc1ccc2ccccc2c1)Nc1ccc2[nH]c(=O)oc2c1)c1cccc(Cl)c1` [Compound I-27], the EC50 is less than 10 µM.

In turn, `CC(C)(C)c1ccccc1NC(=NC(=O)c1ccc(Cl)cc1)Nc1ccc2[nH]c(=O)oc2c1` [Compound I-22] came in with an EC50 of less than 10 µM. `O=C(N=C(Nc1ccc2[nH]ncc2c1)Nc1ccccc1C(F)(F)F)c1ccc(F)cc1` [II-4]: the EC50 is less than 10 µM. Under `N#Cc1cccc(C(=O)N=C(Nc2cc(Cl)cc(Cl)c2)Nc2ccc3[nH]c(=O)oc3c2)c1` [Compound I-116] stands greater than 10 µM.

`O=C(N=C(Nc1ccc2[nH]c(=O)[nH]c2c1)Nc1ccccc1C(F)(F)F)c1ccc(F)cc1` [Compound I-4] returned an EC50 of less than 10 µM.

For the compound `O=C(N=C(Nc1ccc2[nH]ncc2c1)Nc1ccccc1C(F)(F)F)c1ccc(Br)cc1` [II-1], the EC50 is less than 10 µM. The figure for `CC(C)(C)c1ccccc1NC(=NC(=O)c1cccc(F)c1)Nc1ccc2[nH]c(=O)oc2c1` [Compound I-96] is less than 10 µM; for `N#Cc1cccc(C(=O)N=C(Nc2ccc3[nH]c(=O)oc3c2)Nc2ccccc2C2CC2)c1` [Compound I-112] it is less than 10 µM. Under `O=C(N=C(Nc1ccc2ccccc2c1)Nc1ccc2[nH]ncc2c1)c1ccc(F)cc1` [II-12] stands less than 10 µM; under `O=C(N=C(Nc1cccc(C(F)(F)F)c1)Nc1ccc2[nH]c(=O)oc2c1)c1ccc(Cl)cc1` [Compound I-89], less than 10 µM. The figure for `CC(C)(C)c1ccccc1NC(=NC(=O)c1cccc(C#N)c1)Nc1ccc2oc(=O)[nH]c2c1` [Compound I-130] is greater than 10 µM; for `CC(C)(C)c1ccccc1NC(=NC(=O)c1cccc(C(F)(F)F)c1)Nc1ccc2[nH]c(=O)oc2c1` [Compound I-95] it is less than 10 µM. `CC(C)(C)c1ccccc1NC(=NC(=O)c1ccc(F)cc1)Nc1ccc2[nH]c(=O)[nH]c2c1` [Compound I-8] yielded a concentration giving a half-maximal response (EC50) of less than 10 µM.

As to `O=C(N=C(Nc1ccc(Cl)cc1)Nc1ccc2[nH]c(=O)oc2c1)c1ccc(Cl)cc1` [Compound I-90], the EC50 was greater than 10 µM.

`CC(C)(C)c1ccccc1NC(=NC(=O)c1cccc(Cl)c1)Nc1ccc2[nH]c(=O)oc2c1` [Compound I-23] gave an EC50 of less than 10 µM. On to `O=C(N=C(Nc1cccc(C2CC2)c1)Nc1ccc2oc(=O)[nH]c2c1)c1ccc(C(F)(F)F)cc1` [Compound I-135], for which the EC50 is greater than 10 µM. With `O=C(N=C(Nc1ccc(-c2ccccc2)cc1)Nc1ccc2[nH]c(=O)[nH]c2c1)c1ccc(Cl)cc1` [Compound I-14], the 50% effective concentration (EC50) was greater than 10 µM.

On to `CC(C)(C)c1ccccc1NC(=NC(=O)c1ccc(C#N)cc1)Nc1ccc2[nH]c(=O)oc2c1` [Compound I-103], for which the EC50 is less than 10 µM. The figure for `O=C(N=C(Nc1ccc(-c2ccccc2)cc1)Nc1ccc2[nH]c(=O)oc2c1)c1cccc(Cl)c1` [Compound I-31] is less than 10 µM; for `O=C(N=C(Nc1ccc2ccccc2c1)Nc1ccc2[nH]c(=O)[nH]c2c1)c1ccc(Br)cc1` [Compound I-9] it is greater than 10 µM; for `O=C(N=C(Nc1ccc2[nH]c(=O)oc2c1)Nc1ccccc1C(F)(F)F)c1ccc(C(F)(F)F)cc1` [Compound I-92] it is less than 10 µM. Compound `O=C(N=C(Nc1ccc2[nH]c(=O)[nH]c2c1)Nc1ccccc1C(F)(F)F)c1ccc(Cl)cc1` [Compound I-2] showed an EC50 greater than 10 µM. As for `O=C(N=C(Nc1ccc2[nH]c(=O)oc2c1)Nc1ccc(Cl)cc1F)c1cccc(C(F)(F)F)c1` [Compound I-99], the EC50 was greater than 10 µM. The figure for `CC(C)(C)c1ccccc1NC(=NC(=O)c1ccc(C(F)(F)F)cc1F)Nc1ccc2oc(=O)[nH]c2c1` [Compound I-132] is greater than 10 µM; for `O=C(N=C(NCCc1c[nH]cn1)Nc1ccc2ccccc2c1)c1ccc(Br)cc1` [III-8] it is less than 10 µM; for `CC(C)(C)c1ccccc1NC(=NC(=O)c1ccc(C(F)(F)F)cc1)Nc1ccc2[nH]ncc2c1` [II-18] it is less than 10 µM. The figure for `CC(C)(C)c1ccccc1NC(=NC(=O)c1cccc(C#N)c1)Nc1ccc2[nH]c(=O)oc2c1` [Compound I-100] is less than 10 µM; for `O=C(N=C(NCCc1c[nH]cn1)Nc1ccc2ccccc2c1)c1ccc(Cl)cc1` [III-9] it is greater than 10 µM; for `N#Cc1cccc(C(=O)N=C(Nc2cccc(C(F)(F)F)c2)Nc2ccc3oc(=O)[nH]c3c2)c1` [Compound I-133] it is greater than 10 µM.

In the case of `O=C(N=C(NCCc1c[nH]cn1)Nc1ccccc1C(F)(F)F)c1ccc(Br)cc1` [III-1], the EC50 is greater than 10 µM.

`O=C(N=C(Nc1cccc(C2CC2)c1)Nc1ccc2[nH]c(=O)oc2c1)c1cccc(C(F)(F)F)c1` [Compound I-109] showed a 50% effective concentration (EC50) of less than 10 µM.

For `O=C(N=C(Nc1cc(F)cc(Cl)c1)Nc1ccc2[nH]c(=O)oc2c1)c1ccc(C(F)(F)F)cc1` [Compound I-94], the 50% effective concentration (EC50) is less than 10 µM. The figure for `O=C(N=C(Nc1ccc2[nH]c(=O)oc2c1)Nc1ccccc1C(F)(F)F)c1ccc(Br)cc1` [Compound I-17] is less than 10 µM; for `N#Cc1cccc(C(=O)N=C(Nc2ccc3[nH]c(=O)oc3c2)Nc2ccccc2Cl)c1` [Compound I-113] it is less than 10 µM.

As for `O=C(N=C(Nc1ccc(-c2ccccc2)cc1)Nc1ccc2[nH]ncc2c1)c1ccc(Cl)cc1` [II-14], the EC50 was less than 10 µM. The figure for `O=C(N=C(Nc1ccc(Cl)cc1)Nc1ccc2[nH]c(=O)oc2c1)c1ccc(C(F)(F)F)cc1` [Compound I-87] is less than 10 µM. Under `CC(C)(C)c1ccccc1NC(=NC(=O)c1ccc(F)c(F)c1)Nc1ccc2[nH]c(=O)oc2c1` [Compound I-98] stands less than 10 µM. The figure for `CC(C)(C)c1ccccc1NC(=NC(=O)c1cccc(Cl)c1)NCCc1c[nH]cn1` [III-6] is less than 10 µM; for `O=C(N=C(Nc1ccc2ccccc2c1)Nc1ccc2[nH]ncc2c1)c1ccc(Br)cc1` [II-9] it is less than 10 µM. In the case of `O=C(N=C(Nc1ccc(Cl)cc1)Nc1ccc2[nH]ncc2c1)c1ccc(Cl)cc1` [II-22], the EC50 is less than 10 µM.

The values are drawn from patent US8497307B2, “Aryl guanidine F1F0-ATPase inhibitors and related methods” (The Regents of the University of Michigan, priority 2008, dated 2013).
